Laboratory results: patent publication US20210401791A1, “METHODS AND COMPOSITIONS FOR REDUCING ALCOHOL TOXICITY” (THE JOHNS HOPKINS UNIVERSITY, priority 2011, published 2021)
Entries after “also recorded” stand apart in the source; their conditions may differ. Read-outs that look alike come from different tables or passages of the source.

Experiments:
ALDH [1] = test: Total ALDH activity in Hepa1c1c7 cell homogenates (propionaldehyde substrate, fluorimetric); type: cell-based, mouse
Description: To determine total ALDH activity, Hepa1c1c7 or MEF cells were plated into 6-cm plates at 6.0×10^5 or 1.2×10^6 cells/plate, incubated for 24 h at 37° C. in a 5% CO2 atmosphere, and then treated with serial dilutions of inducers. The inducers were dissolved in acetonitrile or DMSO and added to medium so that final concentrations of the solvents was less than 0.5 or 0.1% v/v, respectively. […] The assay was started by addition of 10 μL of 90 mM propionaldehyde, bringing the total volume to 200 μL. […] Blank reaction rates without propionaldehyde were also determined.

NQO1 [2] = test: NQO1 activity in Hepa1c1c7 cells (Prochaska assay, menadione substrate); type: cell-based, mouse; details: 48 h
Description: The lysates of Hepa1c1c7 cells which were plated in 96-well plates at 10^4 cells per well, grown for 24 h, and then exposed to serial dilutions of inducers for 48 h.

Aldh3a1 [3] = test: mRNA expression of Aldh3a1 in Hepa1c1c7 cells (real-time PCR); type: cell-based, mouse; details: 24 hours, SF 1 or 3 μM, TP-225 0.003 or 0.01 μM, BNF 0.3 or 1 μM
Description: Total RNA was extracted from Hepa1c1c7 cells that had been exposed to serial dilutions of inducers for 24 h, or from RNA-stabilized tissues (stored in TRizol) from mice, followed by reverse transcription into cDNA. The cDNA was subjected to quantitative real-time PCR analysis by using SYBR Green fluorescence with 7000 Sequence Detection System. […] Relative expressions of individual mRNAs for ALDH were normalized to β-actin as an endogenous control, and the expression rate was calculated using the comparative ΔΔCt method.

ALDH in Nrf2−/− MEFs = details: stepwise concentration of SF, 48 h
Description: (§1) All cell lines were grown in 5% CO2 at 37° C. Murine hepatoma cell line, Hepa1c1c7 was cultured in α-MEM supplemented with 10% (v/v) heat inactivated FBS. Mouse embryo fibroblasts (MEFs) derived from day 13.5 embryos of wild-type or Nrf2-knockout C57BL/6 mice were cultured in Iscoves Modified Dulbecco's Medium (with L-glutamine) supplemented with human recombinant epidermal growth factor (10 ng/mL), 1× insulin/transferring/selenium, and 10% (v/v) heat-inactivated FBS.
(§2) To determine total ALDH activity, Hepa1c1c7 or MEF cells were plated into 6-cm plates at 6.0×10^5 or 1.2×10^6 cells/plate, incubated for 24 h at 37° C. in a 5% CO2 atmosphere, and then treated with serial dilutions of inducers. The inducers were dissolved in acetonitrile or DMSO and added to medium so that final concentrations of the solvents was less than 0.5 or 0.1% v/v, respectively. […] ALDH activity was measured fluorimetrically in 96-well plates (white-walled) by modification of the method of Koivula et al. (1975). […] The initial velocity of NADH generation was measured (λex 340 nm and λem 460 nm) at 25° C. for 10 min in a micro-plate fluorometer. Blank reaction rates without propionaldehyde were also determined. The ALDH velocity was normalized to the protein concentration and expressed as a change in fluorescent units per min per mg of protein.

ALDH in WT MEFs = details: stepwise concentration of SF, 48 h
Description: as §1, §2

ALDH [4] = details: 1 week; for Cytosolic/microsomal and mitochondrial ALDH activities, fold above control: glandular-stomach
Description: (§3) All animal experiments were performed in compliance with National Institute of Health Guidelines and those of Animal Care and Use Committee of the Johns Hopkins University. […] After 1 week on these diets, mice were euthanized and their liver, forestomach, glandular stomach, and upper small intestine were harvested, frozen in liquid nitrogen, and stored at −80° C. until analyzed. A small portion of each tissue was stored in RNA stabilizing solution at 4° C. until total RNA extraction.
To determine total ALDH activity, Hepa1c1c7 or MEF cells were plated into 6-cm plates at 6.0×10^5 or 1.2×10^6 cells/plate, incubated for 24 h at 37° C. in a 5% CO2 atmosphere, and then treated with serial dilutions of inducers. The inducers were dissolved in acetonitrile or DMSO and added to medium so that final concentrations of the solvents was less than 0.5 or 0.1% v/v, respectively. After 48 h of treatment, cells were washed twice with PBS, scraped from the plates, and homogenized in micro-homogenizers at 4° C. The homogenates were centrifuged at 5,000×g for 15 min at 4° C. and the supernatant fractions were collected. ALDH activity was measured fluorimetrically in 96-well plates (white-walled) by modification of the method of Koivula et al. (1975). The assay mixture (190 μL) contained 70 mM sodium pyrophosphate buffer (pH 8.0), 1.67 mM pyrazole, 1.33 mM NAD, and supernatant fraction. The assay was started by addition of 10 μL of 90 mM propionaldehyde, bringing the total volume to 200 μL. The initial velocity of NADH generation was measured (λex 340 nm and λem 460 nm) at 25° C. for 10 min in a micro-plate fluorometer. Blank reaction rates without propionaldehyde were also determined. The ALDH velocity was normalized to the protein concentration and expressed as a change in fluorescent units per min per mg of protein.
To determine ALDH activities of cytosolic/microsomal and mitochondrial fractions individually, cells or harvested tissues were homogenized at 4° C. in 10 mM Tris-HCl (pH 7.4) containing 0.25 M sucrose and 1 mM 2-mercaptoethanol and centrifuged at 750×g for 15 min to remove nuclei and cell debris. Supernatant fractions were then centrifuged twice at 12,000×g for 20 min to obtain the cytosolic/microsomal and the precipitated mitochondrial fractions. Mitochondrial fractions were suspended in 0.25 M sucrose, diluted with one-half volume of 1% sodium bicarbonate containing 1% sodium deoxycholate (w/v), and sonicated in a Branson Sonicator at 4° C. for five (5) 2-minute periods for a total of 10 min before assays.

Aldh1a1 = details: liver, SF diet 1 week
Description: as §3
(§4) Total RNA was extracted from Hepa1c1c7 cells that had been exposed to serial dilutions of inducers for 24 h, or from RNA-stabilized tissues (stored in TRizol) from mice, followed by reverse transcription into cDNA. The cDNA was subjected to quantitative real-time PCR analysis by using SYBR Green fluorescence with 7000 Sequence Detection System. All primers used in this study were designed based on previous reports. Relative expressions of individual mRNAs for ALDH were normalized to β-actin as an endogenous control, and the expression rate was calculated using the comparative ΔΔCt method.

Aldh2 = details: liver, SF diet 1 week
Description: as §3, §4

Aldh3a1 [5] = details: SF diet 1 week
Description: as §3, §4

[6] = 5 or 20 μmol SF/3 g diet/day, 1 week
Description: as §3

NQO1 [7] = details: liver, both parts of stomach, upper intestine; high dose 20 μmol SF/3 g diet/day, 1 week
Description: as §3

[8] = 20 μmol SF/3 g diet/day 1 week, then 2.0 g/kg ethanol oral
Description: (§5) After fasting overnight, they were gavaged with 35% (v/v) ethanol solution at a dose of 2.0 g/kg. Before, and 0.5, 1, 2, 3, 4, and 6 h after administration of ethanol, 20 μL of blood were collected by nicking the tail vein. The mice were then euthanized and their blood, liver, stomach and upper intestine were collected.
(§6) Blood ethanol and acetaldehyde levels in mice were determined enzymatically by modification of the method of Tottmar et al. (Tottmar 1978). Whole blood samples (20 μL) were obtained by repeated incisions of mouse tail veins. The blood was immediately mixed with 200 μL of 4% (v/v) perchloric acid (PCA) in sealed tubes at 4° C., incubated for 10 min, and then centrifuged at 3000×g for 10 min. The pH values of the supernatant fractions were adjusted to 7.5-8.0 by adding 20 μL of 3 M K2CO3 in new tubes. After removing precipitated KClO4 by centrifugation at 3000×g for 10 min, supernatant fractions were stored in sealed tubes at 4° C. until assayed.

[9] = Description: as §5, §6
Determination of acetaldehyde was performed in 10 mm quarts fluorescence cuvettes in a final volume of 2.33 mL assay mixture containing of assay mixture containing 50 mM sodium pyrophosphate (pH 8.8), 0.1 mM pyrazole, 0.1 mM NAD and 0.2 units/mL of purified ALDH (potassium activated from baker's yeast) with a luminescence spectrophotometer. Before and 5 min after addition of 170 μL of the supernatant, intensities were monitored (λex: 340 nm and λem: 460 nm). The acetaldehyde level in blood was calculated from change of intensity using acetaldehyde standard curve with range from 1.56 to 50 μM in blood. The standard curve was made by applying serial dilution of acetaldehyde to PCA treatment process same as blood.

[10] = human research studies; cited from earlier work
glutathione = details: intake of SF; cited from earlier work
[11] = liver, high dose 20 μmol SF/3 g diet/day

For CC1(C)CC[C@]2(C#N)CC[C@]3(C)[C@H](C(=O)C=C4[C@@]5(C)C=C(C#N)C(=O)C(C)(C)[C@@H]5CC[C@]43C)[C@@H]2C1 [TP-225], which “CD value (concentration required to double the enzyme activity) for induction of ALDH” value (ALDH [1]; Hepa1c1c7 cells, 48 h) is on record?
The value was 0.0016 µM.

What about the “CD value (concentration required to double the enzyme activity) for induction of NQO1” value (NQO1 [2]) of the same compound?
The value was 0.00038 µM.

What about the “Aldh3a1 mRNA expression, fold increase” value (Aldh3a1 [3]) of the same compound?
Its value is about 5 fold.

Which “Total ALDH activity, fold above control levels” value (ALDH [1]; 3 μM SF, additional 6 hours after first 12 h) does the source give for C[S@@+]([O-])CCCCN=C=S [SF, 1-isothiocyanato-4R-(methylsulfinyl)butane] here?
Its value is 1.5 fold.

What about the “Total ALDH activity, fold above control levels” value (ALDH [1]; 3 μM SF, additional 12 hours after first 12 h) of the same compound?
The value was 1.9 fold.

What about the “Total ALDH activity, fold above control levels” value (ALDH [1]; 3 μM SF, additional 24 hours after first 12 h) of the same compound?
The value was 2.1 fold.

What about the “Total ALDH activity vs control” value (ALDH [1]; 3 μM SF, first 12 h) of the same compound?
Its value is “not increased”.

And the “Concentration at which significant effects on total ALDH activity were observed” value (ALDH [1]; Hepa1c1c7 cells, 48 hours treatment)?
The value was at least 0.3 µM.

And the “Effect on total ALDH activity” value (ALDH [1]; Hepa1c1c7 cells, serial concentrations, 48 h)?
The value was “dramatically and dose dependently increased; also recorded: increased total ALDH activity in Hepa1c1c7 cells in a dose dependent manner”.

And the “Treatment time after which total ALDH activity increased” value (ALDH [1]; time course measurement, treatment with SF)?
Its value is 12 to 18 h.

What about the “Effect on total ALDH activity” value (ALDH in Nrf2−/− MEFs) of the same compound?
Its value is “altogether absent”.

And the “Effect on total ALDH activity” value (ALDH in WT MEFs)?
Its value is “increased in a dose dependent manner”.

And the “Aldh3a1 mRNA expression, fold increase” value (Aldh3a1 [3])?
Its value is about 5 fold.

And the “Cytosolic/microsomal and mitochondrial ALDH activities, fold above control” value (ALDH [4]; (high) 20 μmol SF/3 g diet/day)?
The value was 5.1 fold.

What about the “Cytosolic/microsomal and mitochondrial ALDH activities, fold above control” value (ALDH [4]; (low) 5 μmol SF/3 g diet/day) of the same compound?
Its value is 4.1 fold.

And the “Cytosolic/microsomal ALDH activity, fold increase” value (ALDH [4]; [11])?
The value was 1.4 fold.

And the “Mitochondrial ALDH activity, fold increase” value (ALDH [4]; [11])?
Its value is 1.5 fold.

And the “Aldh1a1 expression level, fold increase” value (Aldh1a1)?
Its value is 2.5 fold.

What about the “Aldh2 expression level, fold increase” value (Aldh2) of the same compound?
Its value is 1.8 fold.

What about the “Aldh3a1 expression, fold increase” value (Aldh3a1 [5]; forestomach) of the same compound?
The value was 3 fold.

And the “Aldh3a1 expression, fold increase” value (Aldh3a1 [5]; glandular stomach)?
The value was 6.5 fold.

What about the “Body weights vs control group” value [6] of the same compound?
Its value is “no significant differences”.

What about the “Food intakes vs control group” value [6] of the same compound?
The value was “no significant differences”.

What about the “NQO1 activity, fold increase compared to control” value (NQO1 [7]) of the same compound?
Its value is at most 2.2 fold.

And the “AUC of blood ethanol vs control” value [8]?
The value was “no significant difference”.

And the “Effect on blood ethanol level” value ([8]; only in descending phase)?
The value was “slightly affected”.

What about the “AUC of blood acetaldehyde” value ([9]; 20 μmol SF/3 g diet/day 1 week, then 2.0 g/kg ethanol oral, control 83.8±6.1) of the same compound?
The value was 54.5 ± 5.1 µmol·h/L.

And the “Effect on blood acetaldehyde levels” value ([9]; 20 μmol SF/3 g/day 1 week, then 2.0 g/kg ethanol oral (FIG. 9))?
The value was “remarkably lowered”.

What about the “Acetaldehyde elimination constant relative to control mice” value ([9]; SF-fed mice) of the same compound?
Its value is “roughly 2 times”.

And the “Prevention of increase in blood acetaldehyde level” value ([9]; ascending phase, 20 μmol SF/3 g diet/day 1 week, then 2.0 g/kg ethanol oral)?
The value was 30%.

What about the “Elimination rate constant k of blood acetaldehyde” value ([9]; first order model, SF fed mice, control 0.21±0.02, p<0.01) of the same compound?
The value was 0.40 ± 0.03 h⁻¹.

And the “Initial blood level C0 of acetaldehyde” value ([9]; first order model, SF fed mice, control 28.62±2.1, NS)?
The value was 32.38 ± 2.4 µM.

And the “Adverse effects on administration” value [10]?
The value was “not shown any significant adverse effects”.

And the “Glutathione levels in liver” value (glutathione)?
Its value is “increased glutathione levels in liver”.

For Oc1ccc(C=Cc2cc(O)cc(O)c2)cc1 [resveratrol, reference compound], which “CD value (concentration required to double the enzyme activity) for induction of ALDH” value (ALDH [1]; Hepa1c1c7 cells, 48 h) is on record?
The value was 120.7 µM.

And the “CD value (concentration required to double the enzyme activity) for induction of NQO1” value (NQO1 [2])?
Its value is over 50 µM.

For O=c1cc(-c2ccccc2)oc2ccc3ccccc3c12 [BNF], which “Aldh3a1 mRNA expression, fold increase” value (Aldh3a1 [3]) is on record?
The value was about 5 fold.
